Drawing on PubChem BioAssay AID192 (DTP/NCI, 2004), this text covers T/C for 22 molecules.

The assay deals with BDF1 mice, B16 melanoma ip, median survival T/C. The assay can be described thus: NCI In Vivo Anticancer Drug Screen. Data for tumor model B16 Melanoma (intraperitoneal) in B6D2F1 (BDF1) mice. Particulars: endpoint: median survival time, higher = longer survival. In short, it runs like this:
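Compounds were tested in mice carrying transplantable tumors. Survival or tumor size was recorded, and each value is the treated-group measurement (T) divided by that of the vehicle-treated control group (C).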

[1] abbreviates: dose: 12.5 mg/kg/injection, schedule: Q01DX009 (ip), vehicle: Klucel (hydroxypropylcellulose) (HPC).
[2] abbreviates: dose: 25.0 mg/kg/injection, schedule: Q01DX009 (ip), vehicle: Klucel (hydroxypropylcellulose) (HPC).
Setting [3] is: dose: 50.0 mg/kg/injection, schedule: Q01DX009 (ip), vehicle: Klucel (hydroxypropylcellulose) (HPC).
The mark [4] stands for this setting: dose: 25.0 mg/kg/injection, schedule: Q01DX009 (ip), vehicle: saline with Tween-80.
The mark [5] stands for this setting: dose: 50.0 mg/kg/injection, schedule: Q01DX009 (ip), vehicle: saline with Tween-80.
The mark [6] stands for this setting: dose: 100.0 mg/kg/injection, schedule: Q01DX009 (ip), vehicle: saline with Tween-80.
The mark [7] stands for this setting: dose: 25.0 mg/kg/injection, schedule: Q01DX009 (ip), vehicle: saline.
The mark [8] stands for this setting: dose: 50.0 mg/kg/injection, schedule: Q01DX009 (ip), vehicle: saline.
Where [9] appears, read: dose: 100.0 mg/kg/injection, schedule: Q01DX009 (ip), vehicle: saline.
Setting [10] is: dose: 200.0 mg/kg/injection, schedule: Q01DX009 (ip), vehicle: saline.
The mark [11] stands for this setting: dose: 100.0 mg/kg/injection, schedule: Q01DX009 (ip), vehicle: Klucel (hydroxypropylcellulose) (HPC).
[12] abbreviates: dose: 200.0 mg/kg/injection, schedule: Q01DX009 (ip), vehicle: Klucel (hydroxypropylcellulose) (HPC).
Setting [13] is: dose: 400.0 mg/kg/injection, schedule: Q01DX009 (ip), vehicle: Klucel (hydroxypropylcellulose) (HPC).

Several values for one entry are separate records, joined by “and”; a condition that tells them apart may be missing. Equal entries are not always repeated. Toxic doses and inconclusive results are not listed.

For `Cc1cc([N+](=O)[O-])cc(C)c1OC(=O)c1ccc(N=C(N)N)cc1`, the T/C reads like this: under setting [1], 98 % of control; under setting [2], 97 % of control; under setting [3], 90 % of control.

Take `O=C(CCl)NC(Cc1ccc(O)cc1)C(=O)O` (configuration not stated): the T/C by setting is: under setting [4], 105 % of control; under setting [5], 101 % of control; under setting [6], 95 % of control.

Turning to `COc1ccc(CC2C(=O)NC(C)C(=O)N(C)C3C(=O)N(C)C(Cc4ccc(O)c(c4)Oc4ccc(cc4)C3O)C(=O)NC(C)C(=O)NC(C)C(=O)N2C)cc1` (configuration not stated), the T/C by setting is: (dose: 0.5 mg/kg/injection, schedule: Q01DX009 (ip), vehicle: saline with Tween-80) 152 % of control; (dose: 125.0 micrograms/kg/injection, schedule: Q01DX009 (ip), vehicle: saline with Tween-80) 118 % of control.

In the case of `CN(C)CCCN1c2ccc(O)cc2Sc2ccc(Cl)cc21`, the T/C was 92 % of control (dose: 3.1 mg/kg/injection, schedule: Q01DX009 (ip), vehicle: other); 117 % of control under setting [5]; 124 % of control under setting [6].

`CCOC(=O)C(C(=O)OCC)=C(C)C`: the T/C reads like this: under setting [7], 123 % of control; under setting [8], 113 % of control; under setting [9], 110 % of control; under setting [10], 94 % of control.

With `O=C(O)C1CCCCC1C(=O)Nc1cccc(C(F)(F)F)c1` (configuration not stated), the T/C is 114 % of control under setting [1], 119 % of control under setting [2] and 113 % of control under setting [3].

Regarding `O=S1(=O)OCc2ccccc21`, the T/C runs as follows: under setting [1], 115 % of control; under setting [2], 108 % of control; under setting [3], 118 % of control.

With `c1cc[c]([Pb]([S]c2nc3ccccc3[nH]2)([c]2ccccc2)[c]2ccccc2)cc1`, the T/C runs as follows: (dose: 0.75 mg/kg/injection, schedule: Q01DX009 (ip), vehicle: Klucel (hydroxypropylcellulose) (HPC)) 100 % of control; (dose: 1.5 mg/kg/injection, schedule: Q01DX009 (ip), vehicle: Klucel (hydroxypropylcellulose) (HPC)) 94 % of control.

In the case of `CC(C)NNC(=O)C(N)CO` (configuration not stated), the T/C under setting [7] is 104 % of control, the T/C under setting [8] was 116 % of control, the T/C under setting [9] is 104 % of control and the T/C under setting [10] is 111 % of control.

For `CS(=O)(=O)O`, the T/C is 106 % of control under setting [9]; 113 % of control under setting [10]; 123 % of control (dose: 400.0 mg/kg/injection, schedule: Q01DX009 (ip), vehicle: saline).

Take `FC1(F)SC2C3CC(C4CCC=C43)C2C1(F)F` (configuration not stated): the T/C (dose: 0.39 mg/kg/injection, schedule: Q01DX009 (ip), vehicle: Klucel (hydroxypropylcellulose) (HPC)) is 89 % of control and the T/C (dose: 0.78 mg/kg/injection, schedule: Q01DX009 (ip), vehicle: Klucel (hydroxypropylcellulose) (HPC)) is 103 % of control.

For `COc1ccc(-n2c(=S)[nH]c3ccccc3c2=O)cc1`, the T/C runs as follows: under setting [11], 97 % of control; under setting [12], 88 % of control.

As for `O=NO.O=N[O-].O=N[O-].[Co+3].[NH2-].[NH2-].[NH2-].[NH2-]`, the T/C was 88 % of control (dose: 6.25 mg/kg/injection, schedule: Q01DX009 (ip), vehicle: Klucel (hydroxypropylcellulose) (HPC)); 91 % of control under setting [1]; 92 % of control and 101 % of control under setting [2].

Regarding `COc1cc(C)c2c(=O)c3c(oc2c1)C(=O)c1c(O)c(OC)cc(O)c1C3=O`, the T/C is 105 % of control under setting [4]; 101 % of control under setting [5]; 96 % of control under setting [6]; 100 % of control (dose: 200.0 mg/kg/injection, schedule: Q01DX009 (ip), vehicle: saline with Tween-80).

For `CC(C)CCC[C@@H](C)[C@H]1CC[C@H]2[C@@H]3CC=C4C[C@@H](OC(=O)Cc5ccc(N(CCCl)CCCl)cc5)CC[C@]4(C)[C@H]3CC[C@]12C`, the T/C (dose: 50.0 mg/kg/injection, schedule: Q01DX009 (oral), vehicle: saline) is 108 % of control; the T/C (dose: 100.0 mg/kg/injection, schedule: Q01DX009 (oral), vehicle: saline) is 104 % of control; the T/C (dose: 200.0 mg/kg/injection, schedule: Q01DX009 (oral), vehicle: saline) was 110 % of control; the T/C (dose: 400.0 mg/kg/injection, schedule: Q01DX009 (oral), vehicle: saline) is 104 % of control; the T/C (dose: 800.0 mg/kg/injection, schedule: Q01DX009 (oral), vehicle: saline) was 110 % of control.

On to `CNC(=O)NCc1ccc(C(=O)NC(C)C)cc1`, for which the T/C under setting [2] was 111 % of control; the T/C under setting [3] was 98 % of control; the T/C under setting [11] is 99 % of control; the T/C under setting [12] was 101 % of control; the T/C under setting [13] is 101 % of control.

For `C/C=C(/C(=O)NC(N)=O)C(C)C`, the T/C is 100 % of control under setting [2]; 105 % of control under setting [3]; 105 % of control under setting [11]; 94 % of control under setting [12]; 97 % of control under setting [13].

As to `CCc1occ(C(=O)OC)c1C(=O)OC`, the T/C by setting is: (dose: 100.0 mg/kg/injection, schedule: Q04DX003 (ip), vehicle: saline with Tween-80) 102 % of control; (dose: 200.0 mg/kg/injection, schedule: Q04DX003 (ip), vehicle: saline with Tween-80) 97 % of control; (dose: 400.0 mg/kg/injection, schedule: Q04DX003 (ip), vehicle: saline with Tween-80) 95 % of control.

Take `CCN(CC)[P+](c1ccccc1O)(N(CC)CC)N(CC)CC`: the T/C was 100 % of control (dose: 1.56 mg/kg/injection, schedule: Q01DX009 (ip), vehicle: saline); 105 % of control (dose: 3.12 mg/kg/injection, schedule: Q01DX009 (ip), vehicle: saline); 107 % of control and 114 % of control (dose: 6.25 mg/kg/injection, schedule: Q01DX009 (ip), vehicle: saline).

`COc1cc(C(=O)N2CCOCC2)cc(OC)c1OC`: the T/C is, setting by setting: under setting [2], 110 % of control; under setting [3], 102 % of control; under setting [11], 92 % of control; under setting [12], 97 % of control; under setting [13], 102 % of control.

As to `CC(C)NC(=O)OCc1c(COC(=O)NC(C)C)c(-c2ccc(Cl)c(Cl)c2)n2c1CCC2`, the T/C is, setting by setting: (dose: 1.56 mg/kg/injection, schedule: Q01DX009 (ip), vehicle: distilled water + Tween-80) 102 % of control; (dose: 2.34 mg/kg/injection, schedule: Q01DX009 (ip), vehicle: other) 123 % of control; (dose: 3.11 mg/kg/injection, schedule: Q01DX009 (ip), vehicle: distilled water + Tween-80) 118 % of control; (dose: 3.12 mg/kg/injection, schedule: Q01DX009 (ip), vehicle: distilled water + Tween-80) 120 % of control; (dose: 4.69 mg/kg/injection, schedule: Q01DX009 (ip), vehicle: saline with Tween-80) 183 % of control; (dose: 9.38 mg/kg/injection, schedule: Q01DX009 (ip), vehicle: other) 169 % of control. Besides, the T/C is 173 % of control (dose: 9.38 mg/kg/injection, schedule: Q01DX009 (ip), vehicle: saline with Tween-80); 168 % of control (dose: 12.5 mg/kg/injection, schedule: Q01DX009 (ip), vehicle: distilled water + Tween-80); 179 % of control (dose: 14.4 mg/kg/injection, schedule: Q01DX009 (ip), vehicle: distilled water + Tween-80); 197 % of control (dose: 18.75 mg/kg/injection, schedule: Q01DX009 (ip), vehicle: other); 239 % of control (dose: 18.75 mg/kg/injection, schedule: Q01DX009 (ip), vehicle: saline with Tween-80); 200 % of control (dose: 25.0 mg/kg/injection, schedule: Q01DX009 (ip), vehicle: distilled water + Tween-80). Also, the T/C reads like this: (dose: 37.5 mg/kg/injection, schedule: Q01DX009 (ip), vehicle: saline with Tween-80) 245 % of control; (dose: 40.0 mg/kg/injection, schedule: Q01DX009 (ip), vehicle: distilled water + Tween-80) 103 % of control; (dose: 50.0 mg/kg/injection, schedule: Q01DX009 (ip), vehicle: distilled water + Tween-80) 100 % of control; (dose: 75.0 mg/kg/injection, schedule: Q01DX009 (ip), vehicle: saline with Tween-80) 215 % of control.

Take `O=c1ccc2nc3ccccc3sc-2c1`: the T/C is, setting by setting: (dose: 12.5 mg/kg/injection, schedule: Q01DX009 (ip), vehicle: saline with Tween-80) 93 % of control; under setting [4], 86 % of control; under setting [5], 95 % of control; under setting [6], 91 % of control.
